Consider 33 molecules from patent US20100113421A1, “NON-NUCLEOSIDE REVERSE TRANSCRIPTASE INHIBITORS” (priority 2006, published 2010).

This test relates to HIV strain containing the Y181C mutation. As to the kind of experiment: Spread assay, Y181C mutant strain. Format: cell-based. As to conditions: Human immunodeficiency virus 1; spread assay, 10% FBS, Y181C mutant strain; read-out: CIC95. As to the method:
Assays for the inhibition of acute HIV-1 infection of T-lymphoid cells (alternatively referred to herein as the “spread assay”) were conducted in accordance with Vacca, J. P. et al., Proc. Natl. Acad. Sci. USA 1994, 91: 4096. The assays (using 10% FBS) tested for inhibition of wild type HIV-1 and of HIV strains containing the Y181C or K103N mutation. […] (Note that the compound of Example 6 was tested only up to a 833 nM concentration and the CIC95 value was determined to be >833 nM. The compound of Example 78 was not tested in the Y1818C assay.) The compounds of Examples 1 to 119 (including Examples 70A and 70B) had CIC95 values of less than 1000 nanomolar in the assay employing the K103N mutant strain. In an analogous assay employing a mutant strain containing both the K103N and Y181C mutations, the compounds of Examples 70A, 70B and 78-115 had CIC95 values of less than 1000 nanomolar.
In the case of `Cc1c(C(=O)N(C)Cc2ccccc2Cl)[nH]c(C(N)=O)c1S(=O)(=O)c1cc(F)cc(Cl)c1` [Example 30, N-(2-chlorobenzyl)-N,3-dimethyl-4-(3-chloro-5-fluorophenylsulfonyl)-1H-pyrrole-2,5-dicarboxamide], the IC95 was under 8 µM.

Turning to `Cc1c(C(=O)N(C)Cc2ccc(Cl)cc2Cl)[nH]c(C(N)=O)c1S(=O)(=O)c1cccc(F)c1` [Example 19, N-(2,4-dichlorobenzyl)-N,3-dimethyl-4-(3-fluorophenylsulfonyl)-1H-pyrrole-2,5-dicarboxamide], the IC95 was under 8 µM.

`Cc1c(C(=O)N(C)Cc2ccccc2Cl)[nH]c(C(N)=O)c1S(=O)(=O)c1ccccc1` [Example 8, N-(2-chlorobenzyl)-N,3-dimethyl-4-(phenylsulfonyl)-1H-pyrrole-2,5-dicarboxamide]: the IC95 is under 8 µM.

With `Cc1c(C(=O)N(C)Cc2ccc3ncccc3c2)[nH]c(C(N)=O)c1S(=O)(=O)c1cc(Cl)cc(C#N)c1` [Example 57], the IC95 was under 8 µM.

`CCc1c(C(=O)N(C)Cc2ccc3ncccc3c2)[nH]c(C(N)=O)c1S(=O)(=O)c1ccccc1` [Example 60, 3-ethyl-N-methyl-4-(phenylsulfonyl)-N-(6-quinolinylmethyl)-1H-pyrrole-2,5-dicarboxamide]: the IC95 is under 8 µM.

With `Cc1c(C(=O)N(C)Cc2ccc(Cl)cc2Cl)[nH]c(C(=O)NCc2n[nH]c3ccccc23)c1S(=O)(=O)c1ccccc1` [Example 71, N-(2,4-Dichlorobenzyl)-N′-(1H-indazol-3-ylmethyl)-N,3-dimethyl-4-(phenylsulfonyl)-1H-pyrrole-2,5-dicarboxamide], the IC95 was under 8 µM.

As to `Cc1c(C(=O)N(C)Cc2ccc(Cl)cc2Cl)[nH]c(C(N)=O)c1S(=O)(=O)c1cccc(C(F)(F)F)c1` [Example 23, N-(2,4-dichlorobenzyl)-N,3-dimethyl-4-(3-trifluoromethylphenylsulfonyl)-1H-pyrrole-2,5-dicarboxamide], the IC95 is under 8 µM.

For `Cc1c(C(=O)N(C)Cc2ccc(Cl)cc2Cl)[nH]c(C(=O)NCc2c(F)cccc2Cl)c1S(=O)(=O)c1ccccc1` [Example 77, N′-(2-chloro-6-fluorobenzyl)-N-(2,4-dichlorobenzyl)-N,3-dimethyl-4-(phenylsulfonyl)-1H-pyrrole-2,5-dicarboxamide], the IC95 is under 8 µM.

With `Cc1c(C(=O)N(C)Cc2ccc3ncccc3c2)[nH]c(C(N)=O)c1S(=O)(=O)c1cccc(F)c1` [Example 45], the IC95 is under 8 µM.

On to `Cc1c(C(=O)N(C)Cc2ccc(Cl)cc2Cl)[nH]c(C(N)=O)c1S(=O)(=O)c1cccc(Cl)c1` [Example 21, N-(2,4-dichlorobenzyl)-N,3-dimethyl-4-(3-chlorophenylsulfonyl)-1H-pyrrole-2,5-dicarboxamide], for which the IC95 is under 8 µM.

Regarding `Cc1c(C(=O)N(C)Cc2ccc3ncccc3c2)[nH]c(C(N)=O)c1S(=O)(=O)c1cccc(C(F)(F)F)c1` [Example 46, N,3-dimethyl-N-(6-quinolinylmethyl)-4-{[3-(trifluoromethyl)phenyl]sulfonyl}-1H-pyrrole-2,5-dicarboxamide], the IC95 is under 8 µM.

Turning to `Cc1c(C(=O)N(C)Cc2ccc(Cl)cc2F)[nH]c(C(N)=O)c1S(=O)(=O)c1ccccc1` [Example 12, N-(4-chloro-2-fluorobenzyl)-N,3-dimethyl-4-(phenylsulfonyl)-1H-pyrrole-2,5-dicarboxamide], the IC95 is under 8 µM.

Turning to `Cc1c(C(=O)N(C)Cc2ccc(Cl)cc2Cl)[nH]c(C(=O)NCc2nccs2)c1S(=O)(=O)c1ccccc1` [Example 76, N-(2,4-dichlorobenzyl)-N,3-dimethyl-4-(phenylsulfonyl)-N′-(1,3-thiazol-2-ylmethyl)-1H-pyrrole-2,5-dicarboxamide], the IC95 is under 8 µM.

Turning to `Cc1c(C(=O)N(C)Cc2ccc(Cl)cc2Cl)[nH]c(C(N)=O)c1S(=O)(=O)N1CCCCC1` [Example 118, N-(2,4-dichlorobenzyl)-N,3-dimethyl-4-(1-piperidinylsulfonyl)-1H-pyrrole-2,5-dicarboxamide], the IC95 is under 8 µM.

Take `Cc1cccc(S(=O)(=O)c2c(C(N)=O)[nH]c(C(=O)N(C)Cc3ccc4ncccc4c3)c2C)c1` [Example 44]: the IC95 is under 8 µM.

As to `COc1cccc(CN(C)C(=O)c2[nH]c(C(N)=O)c(S(=O)(=O)c3ccccc3)c2C)c1` [Example 36, N-(3-methoxyobenzyl)-N,3-dimethyl-4-(phenylsulfonyl)-1H-pyrrole-2,5-dicarboxamide], the IC95 was under 8 µM.

Turning to `CNC(=O)c1[nH]c(C(=O)N(C)Cc2ccc(Cl)cc2Cl)c(C)c1S(=O)(=O)c1ccccc1` [Example 72, N-(2,4-dichlorobenzyl)-N,N′,3-trimethyl-4-(phenylsulfonyl)-1H-pyrrole-2,5-dicarboxamide], the IC95 was under 8 µM.

`CC(C)c1c(C(=O)N(C)Cc2ccc(Cl)cc2Cl)[nH]c(C(N)=O)c1S(=O)(=O)c1ccccc1` [Example 63, N-(2,4-dichlorobenzyl)-3-isopropyl-N-methyl-4-(phenylsulfonyl)-1H-pyrrole-2,5-dicarboxamide]: the IC95 is under 8 µM.

On to `Cc1c(C(=O)N(C)Cc2ccc(Cl)cc2Cl)[nH]c(C(=O)NCc2cccnc2)c1S(=O)(=O)c1ccccc1` [Example 75, N-(2,4-dichlorobenzyl)-N,3-dimethyl-4-(phenylsulfonyl)-N′-(3-pyridinylmethyl)-1H-pyrrole-2,5-dicarboxamide], for which the IC95 was under 8 µM.

For `Cc1c(C(=O)N(C)Cc2ccc3ncccc3c2)[nH]c(C(N)=O)c1S(=O)(=O)c1cc(Cl)cc(Cl)c1` [Example 54, 4-[(3,5-dichlorophenyl)sulfonyl]-N,3-dimethyl-N-(6-quinolinylmethyl)-1H-pyrrole-2,5-dicarboxamide], the IC95 is under 8 µM.

Consider `CC(C)c1c(C(=O)N(C)Cc2ccc3ncccc3c2)[nH]c(C(N)=O)c1S(=O)(=O)c1ccccc1` [Example 64, 3-isopropyl-N-methyl-4-(phenylsulfonyl)-N-(6-quinolinylmethyl)-1H-pyrrole-2,5-dicarboxamide], for which the IC95 was under 8 µM.

Consider `Cc1c(C(=O)N(C)Cc2ccc(Cl)cc2Cl)[nH]c(C(=O)NCc2ccccn2)c1S(=O)(=O)c1ccccc1` [Example 74, N-(2,4-dichlorobenzyl)-N,3-dimethyl-4-(phenylsulfonyl)-N′-(2-pyridinylmethyl)-1H-pyrrole-2,5-dicarboxamide], for which the IC95 is under 8 µM.

For the molecule `Cc1cc(C)cc(S(=O)(=O)c2c(C(N)=O)[nH]c(C(=O)N(C)Cc3ccc4ncccc4c3Cl)c2C)c1` [Example 47, N-[(5-chloro-6-quinolinyl)methyl]-4-[(3,5-dimethylphenyl)sulfonyl]-N,3-dimethyl-1H-pyrrole-2,5-dicarboxamide], the IC95 was under 8 µM.

For the molecule `Cc1c(C(=O)N(C)Cc2ccccc2Cl)[nH]c(C(N)=O)c1S(=O)(=O)c1cc(Cl)cc(Cl)c1` [Example 34, N-(2-chlorobenzyl)-N,3-dimethyl-4-(3,5-dichlorophenylsulfonyl)-1H-pyrrole-2,5-dicarboxamide], the IC95 is under 8 µM.

For the molecule `Cc1c(C(=O)N(C)Cc2ccccc2)[nH]c(C(N)=O)c1S(=O)(=O)c1cc(Cl)cc(Cl)c1` [Example 32, N-benzyl-N,3-dimethyl-4-(3,5-dichlorophenylsulfonyl)-1H-pyrrole-2,5-dicarboxamide], the IC95 is under 8 µM.

On to `Cc1c(C(=O)N(C)Cc2ccc3ncccc3c2)[nH]c(C(N)=O)c1S(=O)(=O)c1ccccc1` [Example 43], for which the IC95 was under 8 µM.

With `Cc1c(C(=O)N(C)Cc2cc3cccnc3cc2Cl)[nH]c(C(N)=O)c1S(=O)(=O)c1cc(F)cc(Cl)c1` [Example 53, 4-[(3-chloro-5-fluorophenyl)sulfonyl]-N-[(7-chloro-6-quinolinyl)methyl]-N,3-dimethyl-1H-pyrrole-2,5-dicarboxamide], the IC95 was under 8 µM.

In the case of `Cc1cc(C)cc(S(=O)(=O)c2c(C(N)=O)[nH]c(C(=O)N(C)Cc3ccccc3Cl)c2C)c1` [Example 25, N-(2-chlorobenzyl)-N,3-dimethyl-4-(3,5-dimethyiphenylsulfonyl)-1H-pyrrole-2,5-dicarboxamide], the IC95 was under 8 µM.

On to `Cc1c(C(=O)N(C)Cc2cccc(Cl)c2Cl)[nH]c(C(N)=O)c1S(=O)(=O)c1ccccc1` [Example 13, N-(2,3-dichlorobenzyl)-N,3-dimethyl-4-(phenylsulfonyl)-1H-pyrrole-2,5-dicarboxamide], for which the IC95 was under 8 µM.

Turning to `Cc1c(C(=O)N(C)Cc2ccc(Cl)cc2F)[nH]c(C(N)=O)c1S(=O)(=O)c1cc(Cl)cc(Cl)c1` [Example 35, N-(4-chloro-2-fluorobenzyl)-N,3-dimethyl-4-(3,5-dichlorophenylsulfonyl)-1H-pyrrole-2,5-dicarboxamide], the IC95 was under 8 µM.

As to `Cc1c(C(=O)N(C)Cc2ccc(Cl)cc2Cl)[nH]c(C(N)=O)c1S(=O)(=O)c1ccccc1` [Example 1, N-(2,4-Dichlorobenzyl)-N,3-dimethyl-4-(1-phenylsulfonyl)-1H-pyrrole-2,5-dicarboxamide], the IC95 was under 8 µM.

Turning to `Cc1c(C(=O)N(C)Cc2ccc3ncccc3c2Cl)[nH]c(C(N)=O)c1S(=O)(=O)c1cc(F)cc(F)c1` [Example 49, N-[(5-chloro-6-quinolinyl)methyl]-4-[(3,5-difluorophenyl)sulfonyl]-N,3-dimethyl-1H-pyrrole-2,5-dicarboxamide], the IC95 was under 8 µM.

Consider `Cc1c(C(=O)N(C)Cc2ccccc2Cl)[nH]c(C(N)=O)c1S(=O)(=O)c1cccc2ccccc12` [Example 5, N-(2-Chlorobenzyl)-N,3-dimethyl-4-(1-naphthylsulfonyl)-1H-pyrrole-2,5-dicarboxamide], for which the IC95 is under 8 µM.
